Read-outs that look alike come from different tables or passages of the source. No end group written: not given here.
What was measured:
mouse NaV1.7 = mouse NaV1.7 (Mus musculus, UniProt Q62205); experiment: cell-based; conditions: SEM
human NaV1.7 = human NaV1.7 (Homo sapiens, UniProt Q15858); experiment: cell-based; conditions: SEM
human NaV1.6 = human NaV1.6 (Homo sapiens, UniProt Q9UQD0); experiment: cell-based; conditions: SEM
human NaV1.8 = human NaV1.8 (Homo sapiens, UniProt Q9Y5Y9); experiment: cell-based
human NaV1.9 = human NaV1.9 (Homo sapiens, UniProt Q9UI33); experiment: cell-based
C57BL/6J mice = conditions: mouse, in vivo
HEK293 cells = conditions: 1 h
blowflies (L. caesar) = system: blowflies (L. caesar); parameters: species or system Lucilia caesar; conditions: in vivo
human erythrocytes = conditions: red cells of human, 1 h

Sequence of human NaV1.9 (Q9UI33 whole entry): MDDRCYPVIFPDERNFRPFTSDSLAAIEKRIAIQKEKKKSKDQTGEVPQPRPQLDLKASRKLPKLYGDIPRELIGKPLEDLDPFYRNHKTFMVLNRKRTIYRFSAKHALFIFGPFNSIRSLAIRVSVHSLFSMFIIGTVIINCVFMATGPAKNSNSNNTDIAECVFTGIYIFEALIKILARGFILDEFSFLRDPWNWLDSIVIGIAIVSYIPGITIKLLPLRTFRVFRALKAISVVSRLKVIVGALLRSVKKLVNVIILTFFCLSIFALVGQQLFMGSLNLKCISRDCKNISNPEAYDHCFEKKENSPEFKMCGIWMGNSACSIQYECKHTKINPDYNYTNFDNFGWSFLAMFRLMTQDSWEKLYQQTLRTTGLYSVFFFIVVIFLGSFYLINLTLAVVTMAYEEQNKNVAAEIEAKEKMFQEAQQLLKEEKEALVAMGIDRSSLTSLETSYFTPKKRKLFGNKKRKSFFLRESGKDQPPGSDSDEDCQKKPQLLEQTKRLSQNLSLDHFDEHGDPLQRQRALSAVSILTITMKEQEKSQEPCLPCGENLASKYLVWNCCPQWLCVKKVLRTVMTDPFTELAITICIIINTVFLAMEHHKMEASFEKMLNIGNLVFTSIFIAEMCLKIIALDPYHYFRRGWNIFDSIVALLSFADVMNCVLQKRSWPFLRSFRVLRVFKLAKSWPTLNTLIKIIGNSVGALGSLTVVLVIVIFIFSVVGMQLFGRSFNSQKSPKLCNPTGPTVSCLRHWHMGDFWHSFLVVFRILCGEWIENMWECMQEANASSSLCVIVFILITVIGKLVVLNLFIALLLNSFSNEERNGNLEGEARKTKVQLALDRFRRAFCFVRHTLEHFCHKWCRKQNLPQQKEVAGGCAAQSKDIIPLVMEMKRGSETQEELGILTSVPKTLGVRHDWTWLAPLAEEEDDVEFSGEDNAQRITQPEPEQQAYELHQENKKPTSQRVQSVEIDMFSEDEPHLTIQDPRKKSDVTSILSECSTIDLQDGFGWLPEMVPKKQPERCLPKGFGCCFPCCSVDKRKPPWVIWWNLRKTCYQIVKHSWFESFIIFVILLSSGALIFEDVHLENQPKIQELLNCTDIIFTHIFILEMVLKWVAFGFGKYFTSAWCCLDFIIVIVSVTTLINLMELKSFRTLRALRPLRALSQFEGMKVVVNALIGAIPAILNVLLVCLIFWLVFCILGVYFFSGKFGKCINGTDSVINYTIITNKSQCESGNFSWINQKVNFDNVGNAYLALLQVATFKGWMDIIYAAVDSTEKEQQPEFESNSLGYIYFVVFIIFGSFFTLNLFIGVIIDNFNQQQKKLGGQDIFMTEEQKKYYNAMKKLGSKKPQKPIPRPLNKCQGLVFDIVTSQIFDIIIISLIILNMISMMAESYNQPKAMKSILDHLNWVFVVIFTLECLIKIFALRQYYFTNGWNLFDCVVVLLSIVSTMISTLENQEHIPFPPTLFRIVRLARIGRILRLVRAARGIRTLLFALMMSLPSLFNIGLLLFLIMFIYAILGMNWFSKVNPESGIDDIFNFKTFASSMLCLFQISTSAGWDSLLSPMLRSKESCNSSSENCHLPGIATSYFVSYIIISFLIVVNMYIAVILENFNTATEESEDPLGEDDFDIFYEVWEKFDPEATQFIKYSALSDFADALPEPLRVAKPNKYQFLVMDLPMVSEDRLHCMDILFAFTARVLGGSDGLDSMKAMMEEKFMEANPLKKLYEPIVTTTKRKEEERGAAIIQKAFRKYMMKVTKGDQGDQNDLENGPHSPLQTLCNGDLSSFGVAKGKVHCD
Sequence of human NaV1.8 (Q9Y5Y9 whole entry): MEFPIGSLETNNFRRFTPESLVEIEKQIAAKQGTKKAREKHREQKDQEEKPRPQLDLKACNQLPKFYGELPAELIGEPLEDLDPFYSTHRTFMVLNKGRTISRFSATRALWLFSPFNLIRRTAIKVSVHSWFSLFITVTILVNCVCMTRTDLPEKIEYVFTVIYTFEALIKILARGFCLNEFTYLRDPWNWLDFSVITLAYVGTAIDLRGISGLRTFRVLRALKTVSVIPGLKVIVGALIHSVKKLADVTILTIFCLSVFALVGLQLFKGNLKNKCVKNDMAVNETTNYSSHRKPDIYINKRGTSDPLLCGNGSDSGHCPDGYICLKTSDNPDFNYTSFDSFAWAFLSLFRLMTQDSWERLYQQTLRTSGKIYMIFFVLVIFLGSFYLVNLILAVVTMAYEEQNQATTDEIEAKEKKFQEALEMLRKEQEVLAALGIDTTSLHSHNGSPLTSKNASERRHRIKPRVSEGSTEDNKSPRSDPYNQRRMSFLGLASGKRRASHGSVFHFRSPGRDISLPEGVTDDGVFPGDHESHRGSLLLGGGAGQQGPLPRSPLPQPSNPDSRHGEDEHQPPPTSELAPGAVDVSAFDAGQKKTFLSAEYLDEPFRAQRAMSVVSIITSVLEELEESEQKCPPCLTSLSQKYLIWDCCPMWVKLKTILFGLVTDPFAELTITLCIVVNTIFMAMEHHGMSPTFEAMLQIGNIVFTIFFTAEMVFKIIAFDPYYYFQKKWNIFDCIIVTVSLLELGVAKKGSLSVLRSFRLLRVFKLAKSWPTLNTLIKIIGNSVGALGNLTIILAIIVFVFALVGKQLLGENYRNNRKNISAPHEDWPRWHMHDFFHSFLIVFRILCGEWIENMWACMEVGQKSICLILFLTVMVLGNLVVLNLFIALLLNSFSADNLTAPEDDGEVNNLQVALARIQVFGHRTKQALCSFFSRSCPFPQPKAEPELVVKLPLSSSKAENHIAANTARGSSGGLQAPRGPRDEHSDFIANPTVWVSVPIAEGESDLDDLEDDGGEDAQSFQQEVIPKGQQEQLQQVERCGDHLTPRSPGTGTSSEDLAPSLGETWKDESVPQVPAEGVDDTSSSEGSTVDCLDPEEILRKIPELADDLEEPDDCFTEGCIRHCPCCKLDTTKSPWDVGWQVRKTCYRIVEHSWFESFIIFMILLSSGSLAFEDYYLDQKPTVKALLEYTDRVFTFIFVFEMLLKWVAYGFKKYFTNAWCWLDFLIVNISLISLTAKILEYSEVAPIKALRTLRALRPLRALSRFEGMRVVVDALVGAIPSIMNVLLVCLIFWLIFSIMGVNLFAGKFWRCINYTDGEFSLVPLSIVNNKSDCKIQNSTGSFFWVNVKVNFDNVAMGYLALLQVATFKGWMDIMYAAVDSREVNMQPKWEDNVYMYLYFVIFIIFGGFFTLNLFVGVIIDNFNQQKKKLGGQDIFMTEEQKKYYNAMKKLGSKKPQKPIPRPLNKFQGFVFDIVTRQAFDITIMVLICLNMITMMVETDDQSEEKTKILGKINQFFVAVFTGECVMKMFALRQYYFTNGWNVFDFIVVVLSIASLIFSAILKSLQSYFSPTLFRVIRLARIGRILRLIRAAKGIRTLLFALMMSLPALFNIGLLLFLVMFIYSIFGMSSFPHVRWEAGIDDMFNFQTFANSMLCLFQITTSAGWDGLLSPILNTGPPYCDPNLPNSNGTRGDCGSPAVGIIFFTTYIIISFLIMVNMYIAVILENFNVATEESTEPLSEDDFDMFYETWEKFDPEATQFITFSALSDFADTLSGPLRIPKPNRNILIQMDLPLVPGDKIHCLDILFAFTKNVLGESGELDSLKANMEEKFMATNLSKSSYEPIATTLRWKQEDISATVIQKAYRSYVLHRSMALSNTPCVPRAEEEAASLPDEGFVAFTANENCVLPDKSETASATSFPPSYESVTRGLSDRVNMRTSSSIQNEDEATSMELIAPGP

Substance | EC50 (mouse NaV1.7) [µM] | EC50 (human NaV1.7) [µM] | EC50 (human NaV1.6) [µM] | EC50 (human NaV1.8; SEM) [µM] | EC50 (human NaV1.9) [µM] | spontaneous nocifensive behaviors in mice (C57BL/6J mice) | median cytotoxic concentration (CC50) (HEK293 cells) [µM] | kind of paralysis in blowflies (blowflies (L. caesar)) | reversibility of paralysis in blowflies (blowflies (L. caesar)) | median paralytic dose PD50[1 h] (blowflies (L. caesar); SEM) [nmol/g] | median hemolytic concentration (HC50) (human erythrocytes) [nM] | EC50 (human NaV1.8) [µM]
ALPALPLLMFLFTLPALQHWIEKNWIN-NH2 [Pm2a] | 0.102 ± 0.018 | 0.154 ± 0.017 | 0.176 ± 0.056 | 2.6 ± 0.7 | < 1 | – | – | – | – | – | – | –
GIFSALKTLGKILLPVILPTVAEKIKEKV-NH2 [Pm6a] | – | – | – | – | – | did not cause nociception in mice | 0.465 ± 0.359 | rapid paralysis | irreversible | 9.9 ± 0.4 | 618 ± 148 | –
GLPLLALLFSLPVLQHWIEKNWIN-NH2 [Pm1a] | 0.352 ± 0.058 | 0.403 ± 0.096 | 0.285 ± 0.047 | – | > 1 | – | – | – | – | – | – | > 10

Reference: article PMC10821600 (The Journal of Biological Chemistry, 2023)
